Data as given in patent US4352803A, “Novel naphthyridine derivatives, intermediates thereof, processes for preparation thereof, and use thereof” (Dainippon Pharmaceutical Co., Ltd., priority 1978, dated 1982).
Converted amounts (≈) assume the structure as drawn. Where two headings read alike, the source gives them in different places.

Columns and labels:
[1] = system: Staphylococcus aureus 209P JC-1; experiment: In vitro antibacterial activity (MIC), Staphylococcus aureus 209P JC-1; format: cell-based; conditions: read-out: minimum inhibitory concentration (MIC)
Source text: (§1) (MIC) (μg/ml) Method; Chemotherapy, 22(6), 1126 (1974)

[2] = system: Staphylococcus aureus No. 50774; experiment: In vitro antibacterial activity (MIC), Staphylococcus aureus No. 50774; format: cell-based
Source text: as §1

[3] = system: Streptococcus faecalis P-2473; experiment: In vitro antibacterial activity (MIC), Streptococcus faecalis P-2473; format: cell-based; conditions: Enterococcus faecalis
Source text: as §1

[4] = system: Streptococcus pyogenes 65A; experiment: In vitro antibacterial activity (MIC), Streptococcus pyogenes 65A; format: cell-based; conditions: read-out: minimum inhibitory concentration (MIC)
Source text: as §1

[5] = system: Corynebacterium pyogenes C-21; experiment: In vitro antibacterial activity (MIC), Corynebacterium pyogenes C-21; format: cell-based; conditions: Rhodococcus (subgen. Prescottella) equi
Source text: as §1

[6] = system: Escherichia coli NIHJ JC-2; experiment: In vitro antibacterial activity (MIC), Escherichia coli NIHJ JC-2; format: cell-based; conditions: Escherichia coli, NIHJJC2, read-out: minimum inhibitory concentration (MIC)
Source text: as §1

Escherichia coli P-5101 [7] = experiment: In vitro antibacterial activity (MIC), Escherichia coli P-5101; format: cell-based; conditions: Escherichia coli, P5101, read-out: minimum inhibitory concentration (MIC)
Source text: as §1

Escherichia coli P-140a = experiment: In vitro antibacterial activity (MIC), Escherichia coli P-140a; format: cell-based; conditions: read-out: minimum inhibitory concentration (MIC)
Source text: as §1

[8] = system: Salmonella typhimurium 8-9; experiment: In vitro antibacterial activity (MIC), Salmonella typhimurium 8-9; format: cell-based; conditions: Salmonella enterica, read-out: minimum inhibitory concentration (MIC)
Source text: as §1

[9] = system: Salmonella enteritidis No. 1891; experiment: In vitro antibacterial activity (MIC), Salmonella enteritidis No. 1891; format: cell-based; conditions: Salmonella enterica, read-out: minimum inhibitory concentration (MIC)
Source text: as §1

Shigella flexneri 2a = experiment: In vitro antibacterial activity (MIC), Shigella flexneri 2a; format: cell-based; conditions: read-out: minimum inhibitory concentration (MIC)
Source text: as §1

[10] = system: Shigella flexneri 4a P-330; experiment: In vitro antibacterial activity (MIC), Shigella flexneri 4a P-330; format: cell-based; conditions: 4AP330, read-out: minimum inhibitory concentration (MIC)
Source text: as §1

[11] = system: Klebsiella pneumoniae No. 13; experiment: In vitro antibacterial activity (MIC), Klebsiella pneumoniae No. 13; format: cell-based
Source text: as §1

[12] = system: Enterobacter cloacae P-2540; experiment: In vitro antibacterial activity (MIC), Enterobacter cloacae P-2540; format: cell-based
Source text: as §1

[13] = system: Pseudomonas aeruginosa Tsuchijima; experiment: In vitro antibacterial activity (MIC), Pseudomonas aeruginosa Tsuchijima; format: cell-based; conditions: read-out: minimum inhibitory concentration (MIC)
Source text: as §1

[14] = system: Pseudomonas aeruginosa No. 12; experiment: In vitro antibacterial activity (MIC), Pseudomonas aeruginosa No. 12; format: cell-based
Source text: as §1

[15] = system: Serratia marcescens IFC 3736; experiment: In vitro antibacterial activity (MIC), Serratia marcescens IFC 3736; format: cell-based
Source text: as §1

Proteus morganii Kono = experiment: In vitro antibacterial activity (MIC), Proteus morganii Kono; format: cell-based; conditions: Morganella morganii, read-out: minimum inhibitory concentration (MIC)
Source text: as §1

Proteus mirabilis P-2381 = experiment: In vitro antibacterial activity (MIC), Proteus mirabilis P-2381; format: cell-based; conditions: Proteus mirabilis, P2381, read-out: minimum inhibitory concentration (MIC)
Source text: as §1

Escherichia coli P-5101 [16] = experiment: in vivo efficacy against systemic infection in mice, Escherichia coli P-5101; conditions: P5101, in Mus musculus, po, 168 h
Experimental: Male mice (ddY) weighing about 20 g
Intraperitoneal infection with (about
9 × 10^6 cells/mouse) of a bacterial
(§2) suspension in trypto-soy broth with 4% mucin.
(§3) Twice, about 5 minutes and 6 hours after infection.

[17] = system: Pseudomonas aeruginosa No. 12; experiment: in vivo efficacy against systemic infection in mice, Pseudomonas aeruginosa No. 12; conditions: NO.12, in Mus musculus, po, 168 h
Experimental: Male mice (ddY) weighing about 20 g
(3) Pseudomonas aeruginosa No. 12;
(about 5 × 10^3 cells/mouse) of a bacterial
as §2, §3
The numerals in the table show ED50 (mg/kg). ED50 values were

[18] = system: Staphylococcus aureus No. 50774; experiment: in vivo efficacy against systemic infection in mice, Staphylococcus aureus No. 50774; conditions: NO.50774, in Mus musculus, po, 336 h
Experimental: Male mice (ddY) weighing about 20 g
Intravenous infection with (about
5 × 10^8 cells/mouse) of a bacterial
as §3

[19] = system: Gram-positive and Gram-negative bacteria; experiment: in vivo therapeutic efficacy against systemic infections in mice (overall); design: species or system mice (ddY)
in vivo = conditions: mouse, in vivo, po
Experimental: The number of dead mice was counted after 7 days, and the value of median lethal dose (LD50, mg/kg) was calculated in accordance with the Behrens-Kaerber method.

[20] = Staphylococcus aureus, NO.50774, read-out: minimum inhibitory concentration (MIC)
[21] = P2473, read-out: minimum inhibitory concentration (MIC)
[22] = Enterobacter cloacae, P2540, read-out: minimum inhibitory concentration (MIC)
[23] = Pseudomonas aeruginosa, NO.12, read-out: minimum inhibitory concentration (MIC)
[24] = Serratia marcescens, IFC3736, read-out: minimum inhibitory concentration (MIC)
[25] = Staphylococcus aureus 209P JC-1
[26] = C21, Corynebacterium pyogenes C-21, read-out: minimum inhibitory concentration (MIC)
[27] = Klebsiella pneumoniae No. 13, read-out: minimum inhibitory concentration (MIC)

| Compound | MIC [2, 20] [µg/mL] | MIC [3, 21] [µg/mL] | MIC ([4]; Streptococcus pyogenes, 65A) [µg/mL] | MIC [6] [µg/mL] | MIC (Escherichia coli P-5101 [7]) [µg/mL] | MIC (Escherichia coli P-140a; Escherichia coli) [µg/mL] | MIC ([8]; TYPHIMURIUM) [µg/mL] | MIC ([9]; ENTERITIDIS) [µg/mL] | MIC (Shigella flexneri 2a) [µg/mL] | MIC [10] [µg/mL] | MIC [12, 22] [µg/mL] | MIC ([13]; Pseudomonas aeruginosa) [µg/mL] | MIC [14, 23] [µg/mL] | MIC [15, 24] [µg/mL] | MIC (Proteus morganii Kono) [µg/mL] | MIC (Proteus mirabilis P-2381) [µg/mL] | ED50 (Escherichia coli P-5101 [16]) [mg/kg] | ED50 [17] [mg/kg] | ED50 [18] [mg/kg] | MIC [1, 25] [µg/mL] | also measured |
| --- | --- | --- | --- | --- | --- | --- | --- | --- | --- | --- | --- | --- | --- | --- | --- | --- | --- | --- | --- | --- | --- |
| CC1=C(C(=O)O)N2C(=O)[C@@H](NC(=O)[C@H](N)c3ccccc3)[C@H]2SC1 [J, 7-(D-α-Aminophenylacetamido)desacetoxycephalosporanic acid] | 1.56 (≈ 4.49 µM) | 200 (≈ 576 µM) | 0.78 (≈ 2.25 µM) | 12.5 (≈ 36 µM) | 12.5 (≈ 36 µM) | > 200 | 6.25 (≈ 18 µM) | 3.13 (≈ 9.01 µM) | 12.5 (≈ 36 µM) | 200 (≈ 576 µM) | > 200 | > 200 | > 200 | > 200 | > 200 | 12.5 (≈ 36 µM) | 22.6 | > 400 | 12.1 |  | MIC ([1]; Staphylococcus aureus, 209P): 1.56 µg/mL (≈ 4.49 µM); MIC ([5]; C21, read-out: minimum inhibitory concentration (MIC)): 1.56 µg/mL (≈ 4.49 µM); MIC ([11]; Klebsiella pneumoniae, NO.13, read-out: minimum inhibitory concentration (MIC)): 6.25 µg/mL (≈ 18 µM) |
| CCOC(=O)c1cn(CC)c2nc(N3CCNCC3)c(F)cc2c1=O [ethyl ester of compound 1, Ethyl 1-ethyl-6-fluoro-1,4-dihydro-4-oxo-7-(1-piperazinyl)-1,8-naphthyridine-3-carboxylate] |  |  |  |  |  |  |  |  |  |  |  |  |  |  |  |  |  | 21 | ~20 |  | therapeutic effect / in vivo antibacterial activity (in words) ([19]; systemic infections with Gram-positive and Gram-negative bacteria): superior antibacterial activity in vivo |
| CCn1cc(C(=O)O)c(=O)c2cnc(N3CCNCC3)nc21 [F, 8-Ethyl-5,8-dihydro-5-oxo-2-(1-piperazinyl)pyrido[2,3-d] pyrimidine-6-carboxylic acid] | 25 (≈ 82.4 µM) | 200 (≈ 659 µM) | 200 (≈ 659 µM) | 1.56 (≈ 5.14 µM) | 1.56 (≈ 5.14 µM) | 1.56 (≈ 5.14 µM) | 1.56 (≈ 5.14 µM) | 1.56 (≈ 5.14 µM) | 3.13 (≈ 10.3 µM) | 1.56 (≈ 5.14 µM) | 1.56 (≈ 5.14 µM) |  |  | 3.13 (≈ 10.3 µM) | 3.13 (≈ 10.3 µM) | 3.13 (≈ 10.3 µM) | 21.2 | 99.5 | 215 | 12.5 (≈ 41.2 µM) | MIC [5, 26]: 25 µg/mL (≈ 82.4 µM); MIC [11, 27]: 6.25 µg/mL (≈ 20.6 µM); MIC ([13]; Pseudomonas aeruginosa Tsuchijima): 12.5 µg/mL (≈ 41.2 µM); MIC ([14]; Pseudomonas aeruginosa No. 12, read-out: minimum inhibitory concentration (MIC)): 25 µg/mL (≈ 82.4 µM) |
| CC1(C)S[C@@H]2[C@H](NC(=O)[C@H](N)c3ccccc3)C(=O)N2[C@H]1C(=O)O [H, D-α-Aminobenzylpenicillin] |  |  |  | 6.25 (≈ 17.9 µM) | 6.25 (≈ 17.9 µM) |  |  |  | 3.13 (≈ 8.96 µM) | 6.25 (≈ 17.9 µM) |  | > 200 | > 200 |  |  | 3.13 (≈ 8.96 µM) | 43.5 | > 400 | 2.2 | 0.05 (≈ 0.143 µM) | MIC ([2]; Staphylococcus aureus No. 50774, read-out: minimum inhibitory concentration (MIC)): 0.1 µg/mL (≈ 0.286 µM); MIC ([3]; P2473, Streptococcus faecalis P-2473, read-out: minimum inhibitory concentration (MIC)): 1.56 µg/mL (≈ 4.46 µM); MIC ([4]; Streptococcus pyogenes 65A): 0.025 µg/mL (≈ 0.0715 µM); MIC [5, 26]: 1.56 µg/mL (≈ 4.46 µM); MIC (Escherichia coli P-140a; P140A, Escherichia coli P-140a): 200 µg/mL (≈ 572 µM); MIC ([8]; Salmonella typhimurium 8-9): 0.39 µg/mL (≈ 1.12 µM); MIC ([9]; Salmonella enteritidis No. 1891): 0.2 µg/mL (≈ 0.572 µM); MIC [11, 27]: 100 µg/mL (≈ 286 µM); MIC ([12]; P2540, Enterobacter cloacae P-2540, read-out: minimum inhibitory concentration (MIC)): > 200 µg/mL; MIC ([15]; IFC3736, Serratia marcescens IFC 3736, read-out: minimum inhibitory concentration (MIC)): 25 µg/mL (≈ 71.5 µM); MIC (Proteus morganii Kono; Proteus morganii Kono): 100 µg/mL (≈ 286 µM); therapeutic effects in vivo against Gram-negative bacteria, relative to compounds 1, 1' and 2 ([19]; Gram-negative, particularly Pseudomonas aeruginosa): clearly inferior; LD50 at 168 h (in vivo): > 5000 mg/kg |
